Laboratory results from patent EP1939186A1, “5-Fluorouracil derivatives and their use for the treatment of cancer” (Sulfidris S.r.l., priority 2006, dated 2008).

Legend:
Type in all cases: cell-based
[1] = system: Cisplatin resistant human ovarian cancer cells; assay: Toxicity assay (printed MTD assay) on resistant cells; conditions: various concentrations (1-1000 µM) for 24, 48 or 72 hours
Protocol: Cisplatin resistant human ovarian cancer cells were treated with compounds of example 1 and 4 in comparison with 5-FU at various concentrations (1-1000 µM) for 24, 48 or 72 hours. MTD assay was used for toxicity study.

[2] = system: colon tumour cells HCT 116; assay: MTT assay (cell viability by mitochondrial dehydrogenase) on colon tumour cells; conditions: in vitro, range of concentrations 1-100 µM
Excerpt: (§1) The compound described in example 4 has been tested in vitro on colon tumour cells HCT 116 and DLD 1. MTT assay was used for toxicity study (spectrophotometric measurement of cell viability by mitochondrial dehydrogenase).

colon tumour cells DLD 1 = assay: as above; conditions: in vitro, range of concentrations 1-100 µM
Excerpt: as §1

## CS(=O)(=O)SCCC(=O)OCn1cc(F)c(=O)[nH]c1=O [Example 1, (5-fluoro-2,4-dioxo-3,4-dihydropyrimidin-1(2H)-yl)methyl 3-(methylsulfonylthio)propanoate]
[1]
  biological activity in comparison with 5-FU: superior to 5-FU

## CS(=O)(=O)SCCOC(=O)CNC(=O)n1cc(F)c(=O)[nH]c1=O [Example 4, 2-(methylsulfonylthio)ethyl 2-(5-fluoro-2,4-dioxo-1,2,3,4-tetrahydropyrimidine-1-carboxamido)acetate]
[1]
  biological activity in comparison with 5-FU: superior to 5-FU
[2]
  inhibit growth of colon tumour cells: potently inhibit growth
Colon tumour cells DLD 1
  inhibit growth of colon tumour cells: potently inhibit growth
